Assay results taken from patent publication US12195551B2, “Combination of an ErbB-2/ErbB-3 bispecific antibody with endocrine therapy for breast cancer” (Merus N.V., priority 2017, dated 2025).
Values joined by “and” are separate entries in the source; they are usually repeats but may differ in a detail not shown here. Identical values can stand only once. “Also recorded” adds a separate entry of the source.

Legend:
[1] = tested on: HER3-PI3K complexes; assay: VeraTag assay HER3-PI3K complexes in MCF-7 xenograft tumors; type: in vivo, human; settings: round 1
Method: (§3) The initial VeraTag assay analysis (round 1) was performed with 3 tumors per group
(§4) Prior to the VeraTag analysis, tumors were sectioned and stained with hematoxylin-eosin to determine the percentage of tumor content. Microlaser capture was used to grossly remove any non-tumor content. The initial round of analysis included the following five VeraTag assays: total HER2, total HER3, HER2:HER3 dimers, HER3-PI3K complexes and phosphorylated HER3.

[2] = tested on: HER2; assay: Reverse phase protein array (RPPA) in MCF-7 tumor xenografts: HER2; type: in vivo, human; settings: vs vehicle group, one-way ANOVA
From the text: (§1) FIG. 9. Reverse phase protein array (RPPA) in MCF-7 tumor xenografts treated with vehicle, MCLA-128, Fulvestrant, Tamoxifen, MCLA-128+ Fulvestrant or MCLA-128+ Tamoxifen. Proteins detected in this assay included (phospho)-Akt and (phospho)-HER3 (full data provided in Appendix 4). One-way ANOVA compared levels in all tumors derived from treatment groups with those derived from the PBS group. ** indicates P<0.01.
(§2) Tumors from groups 1-6 were collected when they had reached the maximum tolerated volume, or at the end of the experiment at day 39, which was 10 days after the last dose. Per treatment group, six tumors were included in the Reverse phase protein array (RPPA). The selection of tumors was made so that the average tumor size of the 6 specimens was close to that of the whole group. RPPA analysis was performed as follows: tumors were sectioned and placed on immunohistochemistry slides. Stromal and inflammatory content was macrodissected to purify for tumors cells. Protein lysates were prepared and protein content was quantified. […] Reverse phase protein array (RPPA) data were analyzed using one-way ANOVA to detect significant differences between the treatment groups and the vehicle group. […] Total ERK levels were increased in the single agent groups only, no differences were measured in the other groups or in the phosphorylated ERK analysis. […]

[3] = tested on: MCF-7 human breast carcinoma; assay: Efficacy in nude mouse xenograft model of MCF-7 human breast carcinoma; type: in vivo; settings: for % TGI (tumor growth inhibition): D25, relative to the control group, Faslodex 5.0 mg/animal, Tamoxifen 1 mg/animal; for % TGI (tumor growth inhibition) / median tumor volume: MCLA-128 25 mg/kg i.p.; for median tumor volume: D25, Faslodex 5.0 mg/animal s.c. qwk×5, Tamoxifen 1 mg/animal s.c. qod×15; for P relative to the control group: D25 tumor volumes, Mann-Whitney test; for anti-tumor efficacy / survival benefit (in words): MCF-7 nude mouse xenograft model; for Volume (mm^3) of xenograft MCF-7 tumors / Weight (mgs) of xenograft MCF-7 tumors: individual tumors of sampling groups 8-10 for pharmacodynamic analysis, 8 day treatment, harvested 24 hours after last dose
Method: MCLA-128 was evaluated as monotherapy and in combination with the SERM Tamoxifen and SERD Fulvestrant (Faslodex®) for efficacy in a nude mouse xenograft model of estrogen responsive MCF-7 human breast carcinoma. The study design also included tumor collection for downstream analysis.
Treatments began on D1 in mice with established subcutaneous MCF-7 tumors. The study endpoint was intended to be a tumor volume endpoint of 1000 mm3 45 days, whichever came first. […] Tumor regressions, mean tumor growth, and treatment tolerability also were considered.
The animals were fed ad libitum water (reverse osmosis, 1 ppm Cl) and NIH 31 Modified and Irradiated Lab Diet® consisting of 18.0% crude protein, 6.0% crude fat, and 5.0% crude fiber. The mice were housed on irradiated Enrich-o'Cobs™ Laboratory Animal Bedding in static 85 microisolators on a 12-hour light cycle at […] (68-72° F.) and 40-60% humidity.
Three days prior to tumor cell implantation, estrogen pellets (0.36 mg estradiol, 60-day release, Innovative Research of America, Sarasota, FL) were implanted subcutaneously between the scapulae of all test animals using a sterilized trocar.
Xenografts were initiated with cultured MCF-7 human breast carcinoma cells. Tumor cells were grown to mid-log phase in RPMI-1640 medium containing 10% fetal bovine serum, 100 units/mL penicillin G, 100 μg/mL streptomycin sulfate, 2 mM glutamine, 10 mM HEPES, 0.075% sodium bicarbonate and 25 μg/mL gentamicin. On the day of tumor cell implant, the cells were trypsinized, pelleted, and resuspended in phosphate buffered saline (PBS) at a concentration of 1×10e8 cells/mL. Each test mouse received 1×10e7 MCF-7 cells implanted subcutaneously in the right flank, and tumor growth was monitored as their mean volume approached the desired 100 to 150 mm3 range.
Nineteen days after tumor cell implantation, designated as D1 of the study, the mice were placed into six groups of 15 animals and four groups of six animals, Individual tumor volumes ranged from 75 to 196 mm3 and group mean tumor volumes of 134-137 mm3 on D1. Tumor weight was estimated with the assumption that 1 mg is equivalent to 1 mm3 of tumor volume.
MCLA-128 was stored at 4° C., was provided pre-formulated at 2.5 mg/mL and ready to dose as 25 mg/kg in a 10 mL/kg dose volume, and was protected from light during storage and handling. Tamoxifen (Sigma-25 Aldrich. Lot No. WXBB5732V) was received as a powder and was stored at 4° C. protected from light. Each week, a 5 mg/mL dose solution was prepared in corn oil, and each mouse received 0.2 mL for a dose of 1 mg/animal. The dose solution was stored at 4° C. Fulvestrant tradename Faslodex® (AstraZeneca, Lot No. LV032, LW466, and LX432) was received as 50 mg/mL stock solution that was stored at 4° C. Each dosing day, the stock was diluted in corn oil to 25 mg/mL, and each mouse received 0.2 mL for a dose of 5 mg/animal.
Groups 1 and 7 served as controls for efficacy and sampling, respectively, and received MCLA-128 vehicle intraperitoneally (i.p.) on D1, 4, 8, 11, 15, 18, 22, 25, and 29 and corn oil subcutaneously (s.c.) every other day for fifteen doses (qod×15). Groups 2 and 8 were administered MCLA-128 at 25 mg/kg, i.p., on the same schedule as MCLA-128 vehicle. Groups 3 and 9 were administered Faslodex® at 5.0 mg/animal, s.c., once weekly for five weeks (qwk×5). Group 4 was administered Tamoxifen at 1 mg/animal, s.c., qod×15. Groups 5 and 10 received MCLA-128 and Faslodex®, on the regimens described above. Group 6 received MCLA-128 and Tamoxifen on the regimens described above.
MCLA-128 was administered at a 10 mL/kg dose volume, scaled to the individual body weight of each animal.

[4] = tested on: total HER2; assay: VeraTag assay total HER2 in MCF-7 xenograft tumors; settings: data from both rounds combined; 8 day treatment
Method: (§5) Modulation of levels of total HER2, total HER3 and HER2:HER3 dimers in MCF-7 tumors after 8 day treatment period. […] 24 hours after the last dose, tumors were harvested, processed to FFPE and subjected to VeraTag analysis for the indicated assays. Five independent tumors per treatment group were used for the final analysis. A statistical t-test compared all groups independently. * indicates P<0.01.
(§6) All formalin-fixed tumors from example 2 were processed to FFPE blocks. The initial VeraTag assay analysis (round 1) was performed with 3 tumors per group
as §4
(§7) The tumors analyzed in Round 1 that had scores close to the average value of the specific assays were included in Round 2 to estimate the inter-assay reproducibility and to ensure the data from the two independent experiments could be combined.

[5] = tested on: HER3; settings: in vitro and in vivo; cited from earlier work
[6] = tested on: Akt; assay: Reverse phase protein array (RPPA) in MCF-7 tumor xenografts: Akt; type: in vivo, human; settings: vs vehicle group, one-way ANOVA; tumors collected at maximum tolerated volume or day 39
From the text: as §1, §2

[7] = tested on: phosphorylated HER3; assay: VeraTag assay phosphorylated HER3 in MCF-7 xenograft tumors; type: in vivo, human; settings: round 1
Method: as §3, §4

[8] = tested on: total HER3; assay: VeraTag assay total HER3 in MCF-7 xenograft tumors; type: in vivo, human; settings: data from both rounds combined; 8 day treatment
Method: as §5, §6, §4, §7

[9] = tested on: HER2:HER3 dimers; assay: VeraTag assay HER2:HER3 dimers in MCF-7 xenograft tumors; type: in vivo, human
Method: as §5, §6, §4, §7

[10] = tested on: HER3; assay: Reverse phase protein array (RPPA) in MCF-7 tumor xenografts: HER3; type: in vivo, human; settings: vs vehicle group, one-way ANOVA
From the text: as §1, §2

[11] = tested on: human HBCx-34 breast tumor xenograft; assay: Antitumor efficacy in HBCx-34 patient-derived breast cancer xenograft (study XTS-1521); type: in vivo, mouse
Method: Antitumor efficacy of an HER2/HER3 targeting antibody was determined in the context of a combination treatment together with an aromatase inhibitor. […] It was used as single agent and in combination with the aromatase inhibitor Letrozole. The hormone-dependent HBCx-34 patient-derived breast cancer xenograft model established in immunodeficient mice was used as an example of a breast cancer.
The HBCx-34 PDX model was derived from a treatment-naïve primary breast infiltrating ductal carcinoma.
Tumor-bearing mice received estrogen diluted in drinking water (β-oestradiol, 8.5 mg/l), from the date of tumor implant to the date of inclusion. During the treatment period, mice were not supplemented with estrogen.
Tumors of the same passage were transplanted subcutaneously onto 6-24 mice (donor mice, passage (n−1)). When these tumors reached 1000 to 2000 mm^3, donor mice were sacrificed by cervical dislocation, tumors were aseptically excised and dissected. After removing necrotic areas, tumors were cut into fragments measuring approximately 20 mm^3 and transferred in culture medium before grafting.
95 mice were anaesthetized with 100 mg/kg ketamine hydrochloride (batch 5D92, Exp: 2017/03, Virbac) and 10 mg/kg xylazine (batch KP0AX9X, Exp: 2017/08, Bayer), and then skin was aseptized with a chlorhexidine solution, incised at the level of the interscapular region, and a 20 mm^3 tumor fragment was placed in the subcutaneous tissue. Skin was closed with clips. All mice from the same experiment were implanted on the same day.
Treatments were randomly attributed to boxes housing up to 5 mice and were initiated 36 days post implantation of the tumor (42% inclusion rate). The study was terminated following 57 days after the start of treatment.
Tumor volume was evaluated by measuring tumor diameters, with a calliper, biweekly during the experimental period.
The formula TV (mm3)=[length (mm)×width (mm)2]/2 was used, where the length and the width are the longest and the shortest diameters of the tumor, respectively.
A total of 4 groups were used as summarized in the scheme below. Each group initially included 10 mice.
All treatment doses were body weight adjusted at each injection.

[12] = MCLA-128 25 mg/kg i.p., Letrozole […] p.o. qdx57
Method: All animals were weighed biweekly during the experimental period.
Toxicity of the different treatments was determined as: body weight loss percent (% BWL)=100−(mean BWx/mean BW0×100), where BWx is the mean BW at any day during the treatment and BW0 is the mean BW on the 1st day of treatment.

[13] = tested on: cells stimulated with high concentrations of heregulin (HRG); assay: In vitro potency in heregulin-stimulated cells; type: cell-based
[14] = tested on: total HER2, total HER3, HER2:HER3 dimers, HER3-PI3K complexes and phosphorylated HER3; assay: VeraTag assays (five assays) on MCF-7 xenograft tumors; type: in vivo, human; settings: round 1, 3 tumors per group
Method: Xenograft mice were treated for 8 days with a total of 3 doses of MCLA-128 or 2 doses of Fulvestrant or the combination thereof. 24 hours after the last dose, tumors were harvested, processed to FFPE and subjected to VeraTag analysis for the indicated assays. Five independent tumors per treatment group were used for the final analysis. A statistical t-test compared all groups independently. * indicates P<0.01.
as §3, §4

[15] = MCLA-128 25 mg/kg IP, Letrozole […] PO qdx57

## C[C@]12CC[C@@H]3c4ccc(O)cc4C[C@@H](CCCCCCCCC[S+]([O-])CCCC(F)(F)C(F)(F)F)[C@H]3[C@@H]1CC[C@@H]2O (stereo partly drawn) [Fulvestrant]
[1]
  HER3-PI3K assay (VeraTag): no significant effect
[2]
  Total HER2 levels (RPPA): significantly increased
[3]
  % TGI (tumor growth inhibition): 52%
  median tumor volume: 288 mm3
  P relative to the control group: < 0.001
  anti-tumor efficacy / survival benefit (in words): significantly reduced tumor growth
[3]; listed as Faslodex®
  Volume (mm^3) of xenograft MCF-7 tumors: 196 mm^3 (3×) and 172 mm^3 and 144 mm^3
  Weight (mgs) of xenograft MCF-7 tumors: 137.9 mgs and 140.1 mgs and 174.4 mgs and 119.7 mgs and 117.3 mgs
[4]
  HER2 expression levels (VeraTag): significantly higher than in the MCLA-128 single or combined treatment groups; also recorded: significantly higher levels of HER2 expression
[5]
  HER3 expression in MCF-7 cells: upregulate HER3 expression
[6]
  Total and phosphorylated Akt levels (RPPA): increased
[7]
  phospho HER3 assay (VeraTag): no significant effect
[8]
  HER3 expression (VeraTag): slight increase in HER3
[9]; data from both rounds combined, 8 day treatment
  HER2:HER3 dimerization (VeraTag): significantly induced HER2:HER3 dimerization compared to vehicle; also recorded: induces the formation of HER2:HER3 dimers
[9]; round 1, 3 tumors per group
  HER2:HER3 dimers (VeraTag): significantly upregulated the formation of HER2:HER3 dimers
[10]
  HER3 total levels (RPPA): significantly increased

## MCLA-128: ADCC-enhanced IgG1 bispecific antibody that targets the HER2:HER3 dimer
[11]; [15]
  Best T/C %: 91.14%
  Best TGE %: 31.59%
  T/C % (at control group day end): 101.56%
  TGI % (at control group day end): 4.87%
  median TGD × 3 (In days): 48.64 days
[11]; number of complete regressions recorded up to Group Day End
  TFS (Tumor Free Survivor): 0
[11]; number of mice with 0 to 14 mm^3 tumor size during at least 3 consecutive measurements
  CR (complete regression): 0
[11]; number of mice with constant tumor size during at least 6 consecutive measurements
  TS (Tumor Stabilization): 1/9 and 1
[11]; number of mice with tumor size lower than initial during at least 6 consecutive measurements
  PR (partial regression): 1/9 and 1
[3]
  % TGI (tumor growth inhibition): 0%
  median tumor volume: 600 mm3
  P relative to the control group: > 0.05
  anti-tumor efficacy / survival benefit (in words): no anti-tumor efficacy as a single agent
  Volume (mm^3) of xenograft MCF-7 tumors: 144 mm^3 and 256 mm^3 and 221 mm^3 and 288 mm^3 and 320 mm^3
  Weight (mgs) of xenograft MCF-7 tumors: 120.5 mgs and 98.2 mgs and 135.5 mgs and 134 mgs and 207.7 mgs
[12]
  tolerability (in words): well tolerated
[12]; day of maximum as in text
  maximum individual body weight loss: 8.3%
  maximum mean body weight loss: 0.4%
[13]
  in vitro potency: superior to other anti-HER2 and anti-HER3 antibodies
[14]
  effect in any of the VeraTag assays relative to vehicle: no significant effect
